Experimental data from patent US20080161273A1, “Method of Using Adapalene in Acne Maintenance Therapy” (GALDERMA RESEARCH & DEVELOPMENT, priority 2004, published 2008).
Read-outs that look alike come from different tables or passages of the source.

How the values were obtained:
[1] = 16-week maintenance therapy study: safety, local facial tolerability, adverse events, discontinuation; assay type: in vivo, human
Description: The efficacy and safety of the adapalene gel 0.1% (Galderma Laboratories, LP, Ft. Worth, Tex.) as a maintenance therapy were compared to gel vehicle in a randomized, multicenter, vehicle-controlled, investigator-blind, parallel group study conducted at 34 centers in the United States between Nov. 13, 2003 and May 25, 2004. This study was designed to set a high threshold for achieving success. […] These subjects were re-randomized consecutively in a 1:1 ratio to receive either adapalene gel 0.1% or adapalene gel vehicle once-daily in the evening for an additional 16 weeks. Subjects were stratified by the treatment assignment received in the previous study using an interactive voice responsive system. The randomization schedule remained blinded from those involved in the clinical conduct of the study. The integrity of the blinding was ensured by packaging the topical medication in identical tubes and requiring a third party other than the investigator/evaluator to dispense the medication.
Safety and tolerability were assessed through evaluations of local facial tolerability and adverse events. At each visit, the investigator rated erythema, scaling, dryness, and stinging/burning on a scale ranging from 0 (none) to 3 (severe). Mean scores at each postbaseline visit and worst score (worst observation recorded for a subject during the post-baseline period) were recorded. Adverse events were also evaluated at each visit.
Three study populations were analyzed. The safety population was defined as all patients randomized and treated at least once. The intent-to-treat (ITT) population included all randomized subjects who were dispensed study medication. The per-protocol (PP) population included all randomized subjects without any major protocol deviations.

[2] = applied as monotherapy, versus tazarotene and tretinoin formulations, cited from earlier work
[3] = system: acne vulgaris; assay: 16-week maintenance therapy study after adapalene-doxycycline combination therapy: efficacy (maintenance rate, lesion counts, global severity); assay type: in vivo, human
Description: The efficacy and safety of the adapalene gel 0.1% (Galderma Laboratories, LP, Ft. Worth, Tex.) as a maintenance therapy were compared to gel vehicle in a randomized, multicenter, vehicle-controlled, investigator-blind, parallel group study conducted at 34 centers in the United States between Nov. 13, 2003 and May 25, 2004. This study was designed to set a high threshold for achieving success. […] These subjects were re-randomized consecutively in a 1:1 ratio to receive either adapalene gel 0.1% or adapalene gel vehicle once-daily in the evening for an additional 16 weeks. Subjects were stratified by the treatment assignment received in the previous study using an interactive voice responsive system. The randomization schedule remained blinded from those involved in the clinical conduct of the study. The integrity of the blinding was ensured by packaging the topical medication in identical tubes and requiring a third party other than the investigator/evaluator to dispense the medication. Exclusion criteria prohibited enrollment of subjects with acne requiring isotretinoin therapy or other dermatologic conditions requiring interfering treatment. Women were excluded if they were pregnant, nursing, or planning a pregnancy as were men with facial hair that would interfere with the assessments. Subjects were provided Cetaphil® daily facial moisturizer SPF 15 (Galderma Laboratories, LP., Ft Worth, Tex.) to use as needed for the symptomatic relief of skin dryness or irritation. Evaluations for this study occurred at baseline and at weeks 4, 8, 12, and 16. The final visit from the previous 12-week combination study served as the baseline visit for this 16-week maintenance study. The primary efficacy variable was the failure rate at week 16, defined as the percentage of subjects unable to maintain 50% of total lesion count improvement from the previous 12-week combination therapy study (e.g., a subject entering the maintenance phase after having lost 40 lesions in the combination study was considered as a failure if the lesion count at the end of the maintenance study was increased by more than 20 lesions). Data from this assessment is presented graphically herein as a maintenance rate, which is simply 100% minus the failure rate. Secondary efficacy variables included lesion counts (total, inflammatory and non inflammatory), failure rates for inflammatory and non-inflammatory lesions, as well as global severity and global improvement of the disease. At the last visit, subject satisfaction was assessed via a 5-question survey. All data analyses were carried out according to a pre-established analysis plan. A sample size of 113 subjects per group was deemed necessary to detect a statistically significant difference in failure rate between treatment groups based on the use of a 2-tailed test with […] and a power of 90%; an assumption of a 15% efficacy difference between the 2 treatment groups; and a dropout rate of 10%. Three study populations were analyzed. The safety population was defined as all patients randomized and treated at least once. The intent-to-treat (ITT) population included all randomized subjects who were dispensed study medication. The per-protocol (PP) population included all randomized subjects without any major protocol deviations. […] Analyses for efficacy were performed on week 16 data for the ITT population and the PP population. Last observation carried forward (LOCF) methodology was used to account for missing data for the ITT population analysis (lesion counts). In addition, all subjects with missing data at week 16 were considered failures for the failure rate analysis (worst case). Age was tested at baseline with the analysis of variance (ANOVA) model with treatment, center, and their interaction as factors. All other variables were analyzed by using the Cochran-Mantel-Haenzsel (CMH) test controlling for “analysis center” and previous treatment for both the ITT and PP populations. […]

[4] = 5-question subject satisfaction survey at last visit of the maintenance study; assay type: in vivo, human; conditions: P=0.94 vs vehicle
Description: The primary efficacy variable was the failure rate at week 16, defined as the percentage of subjects unable to maintain 50% of total lesion count improvement from the previous 12-week combination therapy study (e.g., a subject entering the maintenance phase after having lost 40 lesions in the combination study was considered as a failure if the lesion count at the end of the maintenance study was increased by more than 20 lesions). Data from this assessment is presented graphically herein as a maintenance rate, which is simply 100% minus the failure rate. Secondary efficacy variables included lesion counts (total, inflammatory and non inflammatory), failure rates for inflammatory and non-inflammatory lesions, as well as global severity and global improvement of the disease. At the last visit, subject satisfaction was assessed via a 5-question survey.

For COc1ccc(-c2ccc3cc(C(=O)O)ccc3c2)cc1C12CC3CC(CC(C3)C1)C2 [adapalene, 6-[3-(1-adamantyl)-4-methoxyphenyl]-2-naphtoic acid], the “overall safety and tolerability” value ([1]; 16-week study) was “safe and well tolerated”, the “subjects experiencing adverse events” value ([1]; 16-week study) was 25% and the “subjects with treatment-related adverse events (percentage)” value ([1]; 16-week study) was 2.4%. The “subjects with treatment-related adverse events (number)” value ([1]; 16-week study, 126 subjects in group) was 3 subjects, the “mean worst score for each local cutaneous tolerability variable, large majority of subjects” value ([1]; scale none, mild, moderate, severe) was “none or mild” and the “tolerability / cutaneous irritation profile versus other topical retinoids” value [2] was “more favorable cutaneous irritation profile”. For the same molecule, the “tolerability / cutaneous irritation profile versus other topical retinoids” value ([2]; listed as Adapalene) was “more favorable tolerability profile”, the “lesion counts during the course of the study versus baseline” value ([3]; 16 weeks, vehicle group gradually increased) was “remained stable or decreased” and the “subjects "clear" or "almost clear" in global severity assessment” value ([3]; P=0.005 for distribution of severity scores vs vehicle) was 27%. For the same molecule, the “global assessment of improvement versus vehicle” value ([3]; P=0.01) was “significant advantages”, the “total lesion counts relative to vehicle” value ([3]; end point week 16, ITT, LOCF, P=0.005) was “significantly lower” and the “inflammatory lesion counts relative to vehicle” value ([3]; end point week 16, ITT, LOCF, P=0.01) was “significantly lower”. For the same molecule, the “noninflammatory lesion counts relative to vehicle” value ([3]; end point week 16, ITT, LOCF, P=0.02) was “significantly lower”, the “maintenance rate, total lesion counts (subjects maintaining at least 50% of improvement from previous combination study)” value ([3]; week 16, ITT, worst case (missing data = failure), once-daily for 16 weeks, P<0.001 vs vehicle) was 75% and the “subjects not bothered by side effects” value [4] was 90%.
